# Article PMC5750217 (Nature Communications, 2018)
# Columns and labels:
# [1] = biological target: T1, GltPh-R397C (Pyrococcus horikoshii, UniProt O59010, R397C); test: biochemical; settings: for Transport of radiolabelled substrate into proteoliposomes (in words): 100 nM L-[3H]aspartate, 1 µM L-[3H]glutamine, 10 µM 35S-cysteine ± 1 mM DTT, Na+ gradient
# T1 construct: hexa-His (N, cleaved yes); made in house; host or cells: Escherichia coli Top10 (pBAD)
# Experimental: (§1) Mutant and wild-type GltPh with an amino-terminal hexa-His tag were expressed in Escherichia coli Top10 cells (Invitrogen), which were grown in Luria broth medium at 37 °C. Ampicillin was added to a final concentration of 100 μg per ml. To induce expression of GltPh, 0.1% L-arabinose was added when cells reached an optical density of 0.6 at 660 nm, and cells were harvested 4 h post induction. Membranes were isolated, and then solubilised with n-dodecyl-β-D-maltopyranoside (C12M, Anatrace). Histidine containing proteins were purified using Ni^2+−nitrilotriacetic acid resin (Qiagen). The histidine tag was subsequently removed from GltPh by digestion with thrombin (10 U per mg protein) and the protein further purified on a Superdex 200 size exclusion column, where the detergent was exchanged to n-decyl-β-D-maltopyranoside (C10M, Anatrace).
# (§2) Pure protein was reconstituted into liposomes composed of 75% E. coli Polar Lipid Extract and 25% 1-palmitoyl-2-oleoyl-sn-glycero-3 ^−phopshocholine (Avanti Polar Lipids). Lipids were mixed, dried under nitrogen and resuspended in internal buffer (100 mM KCl, 20 mM HEPES-Tris pH 7.5) using brief sonication (Laboratory Supplies Co.). The lipid suspension was frozen in liquid nitrogen and thawed at room temperature several times. Liposomes were formed by extrusion through 400 nm polycarbonate membranes (Avanti Polar Lipids) and were treated with Triton X-100 at a 0.5:1 (w/w) detergent to lipid ratio prior to the addition of protein at 0.25 μg protein per mg lipid. The protein/lipid mixture was left at room temperature for 30 min before detergent was removed using SM2 Biobeads (BioRad). The mixture was then incubated with gentle agitation, with four consecutive batches of Biobeads (80 mg per ml). Proteoliposomes were concentrated by centrifugation at 150,000 g for 30 min, resuspended at 100 mg lipid per ml and either used immediately or flash-frozen in liquid nitrogen and stored at −80 °C.
# (§3) Mutant and wild-type GltPh-mediated transport of radiolabelled substrate was assayed by diluting proteoliposomes (100 mg lipid per ml) 133-fold into uptake buffer (100 mM NaCl, 20 mM HEPES-Tris pH 7.5, 1 μM valinomycin, 100 nM–1 µM L-[^3H]substrate) pre-warmed to 30 °C. At each time point, a 200 µl aliquot was removed and diluted 10-fold into ice-cold quench buffer (100 mM LiCl, 20 mM HEPES-Tris pH 7.5), followed by immediate filtration over nitrocellulose filters (0.22 μm pore size, Millipore). The filters were washed with ice-cold quench buffer and assayed for radioactivity using a Trilux beta counter (PerkinElmer). To establish substrate concentration–response curves, extraliposomal L-[^3H]substrate was varied between 500 nM and 100 µM, maintaining NaCl concentrations at 300 mM. For inhibitor concentration–response curves, for wild-type GltPh 100 nM L-[^3H]aspartate, and for mutant GltPh 1 µM L-[^3H]serine, was co-applied with varying inhibitor concentrations. Background levels of uptake were measured by diluting proteoliposomes into internal buffer (100 mM KCl, 20 mM HEPES-Tris pH 7.5) containing 1 µM of valinomycin and the indicated concentrations of L-[^3H]substrate.
# Supplementary Figure 6. GltPh‐R397C, ASCT1 and ASCT2 are functional cysteine transporters. (a) Purified GltPh‐R397C was reconstituted into liposomes and 10µM 35S‐cysteine transport was measured over 10 minutes alone or in the presence of 1 mM dithiothreitol (DTT). Background levels of uptake were measured by diluting proteoliposomes into internal buffer (100 mM KCl, 20 mM HEPES‐Tris pH 7.5) containing 1 µM of valinomycin and the 10µM 35S‐cysteine. […]
# (c) Neutral amino acid exchange in GltPh‐R397C. Counterflow experiments in which Na+ and amino acid loaded liposomes were used to detect the transport of a range of unlabelled neutral amino acids by exchanging with external 3H‐serine. Counterflow assays were performed using liposomes containing 200mM NaCl, 20 mM HEPES/Tris pH 7.5, and 1 mM of unlabelled amino acid as indicated. […]
# [2] = biological target: T2, GltPh-G396S/R397C (Pyrococcus horikoshii, UniProt O59010, G396S/R397C); test: biochemical; assay type: biochemical
# T2 construct: hexa-His (N, cleaved yes); made in house; host or cells: Escherichia coli Top10 (pBAD)
# T2 sequence (O59010 whole entry G396S/R397C): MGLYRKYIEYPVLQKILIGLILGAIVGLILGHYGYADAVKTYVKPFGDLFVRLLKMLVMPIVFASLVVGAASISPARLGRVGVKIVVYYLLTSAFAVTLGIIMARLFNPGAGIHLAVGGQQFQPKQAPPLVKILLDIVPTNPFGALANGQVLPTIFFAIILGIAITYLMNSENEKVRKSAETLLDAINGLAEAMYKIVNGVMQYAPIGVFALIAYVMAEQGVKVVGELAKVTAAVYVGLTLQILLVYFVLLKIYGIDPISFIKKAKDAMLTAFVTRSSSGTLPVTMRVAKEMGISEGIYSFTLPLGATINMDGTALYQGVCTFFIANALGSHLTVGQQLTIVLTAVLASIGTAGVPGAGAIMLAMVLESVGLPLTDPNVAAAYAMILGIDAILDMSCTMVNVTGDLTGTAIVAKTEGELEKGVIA
# Experimental: as §1, §2, §3
# [3] = biological target: T3, ASCT2 (Homo sapiens, UniProt Q15758); test: Radiolabelled uptake in oocytes expressing ASCT2; assay type: cell-based; settings: 10 µM radiolabelled substrate, 10 min, room temperature
# T3 sequence (Q15758 1-541): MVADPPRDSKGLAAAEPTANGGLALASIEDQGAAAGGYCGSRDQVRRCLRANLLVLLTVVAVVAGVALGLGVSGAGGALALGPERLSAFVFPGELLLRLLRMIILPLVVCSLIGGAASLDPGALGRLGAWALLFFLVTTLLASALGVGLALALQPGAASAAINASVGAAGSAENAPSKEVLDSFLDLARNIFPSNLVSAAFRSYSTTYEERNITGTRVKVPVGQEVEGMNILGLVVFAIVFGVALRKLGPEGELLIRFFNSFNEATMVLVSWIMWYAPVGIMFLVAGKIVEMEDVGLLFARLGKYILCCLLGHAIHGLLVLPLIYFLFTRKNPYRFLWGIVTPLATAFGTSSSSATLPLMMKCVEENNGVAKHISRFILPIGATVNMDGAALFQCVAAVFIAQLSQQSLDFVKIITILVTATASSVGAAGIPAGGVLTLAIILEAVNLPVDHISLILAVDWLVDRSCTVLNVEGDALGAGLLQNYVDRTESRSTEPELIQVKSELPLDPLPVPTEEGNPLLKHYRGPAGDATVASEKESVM
# Experimental: Uptake of L-[^3H]amino acids (PerkinElmer Life Sciences) was measured in oocytes expressing wild-type and mutant ASCT1, and uninjected oocytes. Five oocytes were incubated in Cl^−-containing buffer with 10 µM L-[^3H]amino acids at room temperature. After 10 min, uptake was terminated by three rapid washes in ice-cold Cl^−-containing buffer followed by lysis in 50 mM NaOH and 1% SDS. L-[^3H]amino acids were measured by scintillation counting using a Trilux beta counter (PerkinElmer Life Sciences).
# Supplementary Figure 6. GltPh‐R397C, ASCT1 and ASCT2 are functional cysteine transporters. (a) […]
# 7.5) containing 1 µM of valinomycin and the 10µM 35S‐cysteine. […]
# (1 picture or pasted object on this page, not shown here)
# T1 sequence (O59010 whole entry R397C): as the sequence (O59010 whole entry G396S/R397C) above, with S396G counted along it
compound,measurement,setting,value
"N[C@@H](CCC(=O)Nc1ccc([N+](=O)[O-])cc1)C(=O)O [GPNA, glutamyl-p-nitroanilide]",IC50 for inhibition of L-[3H]serine transport,"[1]; GltPh-R397C, 1 µM L-[3H]serine",poorly inhibited
same,IC50 for inhibition of L-[3H]serine transport,"[2]; GltPh-G396S/R397C, 1 µM L-[3H]serine",poor inhibitor
NC(=O)CC[C@H](N)C(=O)O [L-glutamine],Transport of radiolabelled substrate into proteoliposomes (in words),"[1]; GltPh-R397C, listed as L-Glutamine",not a substrate
same,Transport of radiolabelled substrate into proteoliposomes (in words),"[1]; GltPh-R397C, listed as L-[^3H]glutamine",not transported at levels above background
same,Reduction of L-[3H]serine transport by unlabelled competitor,"[1]; GltPh-R397C, 10 µM L-[3H]serine, 100-fold excess unlabelled amino acid",able to bind and inhibit
same,Radiolabelled substrate uptake into oocytes (in words),[3],robust L-[^3H]glutamine uptake
same,Transport of radiolabelled substrate into proteoliposomes (in words),"[2]; GltPh-G396S/R397C, 100 nM L-[3H]aspartate, 1 µM L-[3H]glutamine, Na+ gradient, pH 7.5",does not effectively transport
N[C@@H](CO)C(=O)O [L-serine],EC50,[1],4.5 ± 0.9 µM
same,Fold lower affinity for GltPh-R397C compared with L-aspartate for wild-type GltPh,[1]; serine at GltPh-R397C vs L-aspartate at wild-type GltPh,100 fold
same,Radiolabelled substrate uptake into oocytes (in words),[3],observe L-[^3H]serine uptake
same,EC50,[2],15 ± 2 µM
N[C@@H](CS)C(=O)O [L-cysteine],Radiolabelled substrate uptake into oocytes (in words),[3],robust L-[^35S]cysteine uptake
same,Reduction of L-[3H]serine transport by unlabelled competitor (in words),"[2]; GltPh-R397C/G396S, 10 µM L-[3H]serine, 100-fold excess unlabelled amino acid",to a similar extent
